Holding throughout (assay): MIC, standard microtiter broth serial dilution test
Common to all, as to assay type: cell-based

Assay [1] has as its system S. aureus Smith ATCC 0329. To be noted: Staphylococcus aureus, ATCC0329.
Assay [2] deals with S. pneumoniae 0541. The note with it: Streptococcus pneumoniae.
The subject of assay [3] is S. pyogenes 0542. To be noted: Streptococcus pyogenes.
Assay [4] concerns E. faecalis ATCC 0004. The note with it: Enterococcus faecalis, ATCC0004.
Assay [5] deals with erythromycin resistant strains of Streptococcus pneumoniae.
The subject of assay [6] is erythromycin resistant strains of Streptococcus pyogenes.
Assay [7] has as its system H. influenzae ATCC 0529. To be noted: Haemophilus influenzae, ATCC0529.
Assay [8] deals with M. catarrhalis ATCC 0324. To be noted: Moraxella catarrhalis, ATCC0324.

Some results are limits rather than exact numbers.

As to `CC[C@H]1OC(=O)[C@H](C)[C@@H](O[C@H]2C[C@@](C)(OC)[C@@H](OC(=O)CCOCCOCCNc3cc4c(=O)c(C(=O)O)cn(C5CC5)c4cc3Cl)[C@H](C)O2)[C@H](C)[C@@H](O[C@@H]2O[C@H](C)C[C@H](N(C)C)[C@H]2O)[C@](C)(O)C[C@@H](C)/C(=N\OCOCCOC)[C@H](C)[C@@H](O)[C@]1(C)O` [Example 6, 4″-O-(3-{2-[2-(3-Carboxy-7-chloro-1-cyclopropyl-4-oxo-1,4-dihydro-quinolin-6-ylamino)-ethoxy]-ethoxy}-propionyl)-roxythromycin], the MIC in assay [1] was at most 1 µg/mL; in assay [2], at most 1 µg/mL; in assay [3], at most 1 µg/mL; in assay [4] it was at most 1 µg/mL; in assay [5] it was at most 0.25 µg/mL; in assay [6], at most 0.25 µg/mL.
For the compound `CC[C@H]1OC(=O)[C@H](C)[C@@H](O[C@H]2C[C@@](C)(OC)[C@@H](OC(=O)CCOCCOCCNc3cc4c(=O)c(C(=O)O)cn(C5CC5)c4cc3Cl)[C@H](C)O2)[C@H](C)[C@@H](O[C@@H]2O[C@H](C)C[C@H](N(C)C)[C@H]2O)[C@](C)(O)C[C@@H](C)CN(C)[C@H](C)[C@@H](O)[C@]1(C)O` [Example 8, 4″-O-(3-{2-[2-(3-Carboxy-7-chloro-1-cyclopropyl-4-oxo-1,4-dihydro-quinolin-6-ylamino)-ethoxy]-ethoxy}-propionyl)-azithromycin], the MIC in assay [1] was at most 1 µg/mL; in assay [2], at most 1 µg/mL; in assay [3], at most 1 µg/mL; in assay [4], at most 1 µg/mL; in assay [7] it was at most 2 µg/mL; in assay [8] it was at most 2 µg/mL. In addition, the MIC in assay [5] and in assay [6] was at most 0.25 µg/mL throughout.
As for `CC[C@H]1OC(=O)[C@H](C)[C@@H](O[C@H]2C[C@@](C)(OC)[C@@H](OC(=O)CCOCCOCCNc3ccc4c(c3)c(=O)c(C(=O)O)cn4C3CC3)[C@H](C)O2)[C@H](C)[C@@H](O[C@@H]2O[C@H](C)C[C@H](N(C)C)[C@H]2O)[C@](C)(O)C[C@@H](C)CN(C)[C@H](C)[C@@H](O)[C@]1(C)O` [Example 11, 4″-O-(3-{2-[2-(3-Carboxy-1-cyclopropyl-4-oxo-1,4-dihydro-quinolin-6-ylamino)-ethoxy]-ethoxy}-propionyl)-azithromycin], the MIC in assay [1] is at most 1 µg/mL; in assay [2], at most 1 µg/mL; in assay [3], at most 1 µg/mL; in assay [4], at most 1 µg/mL; in assay [7], at most 2 µg/mL; in assay [8], at most 2 µg/mL. In addition, the MIC in assay [5] and in assay [6] was at most 0.25 µg/mL in each case.
As to `CCO/N=C1\[C@H](C)C[C@@](C)(O)[C@H](O[C@@H]2O[C@H](C)C[C@H](N(C)C)[C@H]2O)[C@@H](C)[C@H](OC2C[C@@](C)(OC)[C@@H](OC(=O)CCOCCOCCNc3cc4c(=O)c(C(=O)O)cn(C5CC5)c4cc3Cl)[C@H](C)O2)[C@@H](C)C(=O)O[C@H](CC)[C@@](C)(O)[C@H](O)[C@H]1C` (stereo partly drawn) [Example 19, 4″-O-(3-{2-[2-(3-Carboxy-7-chloro-1-cyclopropyl-4-oxo-1,4-dihydro-quinolin-6-ylamino)-ethoxy]-ethoxy}-propionyl)-9(E)-ethoxyimino-erythromycin A], the MIC in assay [1] is at most 1 µg/mL; in assay [2], at most 1 µg/mL; in assay [3], at most 1 µg/mL; in assay [4] it was at most 1 µg/mL; in assay [7], at most 2 µg/mL; in assay [8], at most 2 µg/mL. The MIC in assay [5] and in assay [6] was at most 0.25 µg/mL each time.
Take `CC[C@H]1OC(=O)[C@H](C)[C@@H](O[C@H]2C[C@@](C)(OC)[C@@H](OC(=O)CCOCCOCCNc3ccc4c(c3)c(=O)c(C(=O)O)cn4CC)[C@H](C)O2)[C@H](C)[C@@H](O[C@@H]2O[C@H](C)C[C@H](N(C)C)[C@H]2O)[C@](C)(O)C[C@@H](C)CN(C)[C@H](C)[C@@H](O)[C@]1(C)O` [Example 30, 4″-O-(3-{2-[2-(3-Carboxy-1-ethyl-4-oxo-1,4-dihydro-quinoline-6-ylamino)-ethoxy]-ethoxy}-propionyl)-azithromycin]: the MIC was at most 1 µg/mL in assay [1]; at most 1 µg/mL in assay [2]; at most 1 µg/mL in assay [3]; at most 1 µg/mL in assay [4]; at most 2 µg/mL in assay [7]; at most 2 µg/mL in assay [8]. The MIC in assay [5] and in assay [6] was at most 0.25 µg/mL throughout.
In the case of `CC[C@H]1OC(=O)[C@H](C)[C@@H](O[C@H]2C[C@@](C)(OC)[C@@H](OC(=O)CCOCCOCCNc3cc4c(=O)c(C(=O)O)cn(C(C)C)c4cc3Cl)[C@H](C)O2)[C@H](C)[C@@H](O[C@@H]2O[C@H](C)C[C@H](N(C)C)[C@H]2O)[C@](C)(O)C[C@@H](C)CN(C)[C@H](C)[C@@H](O)[C@]1(C)O` [Example 31, 4″-O-(3-{2-[2-(3-carboxy-7-chloro-1-isopropyl-4-oxo-1,4-dihydro-quinoline-6-ylamino)-ethoxy]-ethoxy}-propionyl)-azithromycin], the MIC was at most 1 µg/mL in assay [1]; at most 1 µg/mL in assay [2]; at most 1 µg/mL in assay [3]; at most 1 µg/mL in assay [4]; at most 2 µg/mL in assay [7]; at most 2 µg/mL in assay [8]. Further, the MIC in assay [5] and in assay [6] was at most 0.25 µg/mL in each case.
With `CC[C@H]1OC(=O)[C@H](C)[C@@H](OC2C[C@@](C)(OC)[C@@H](OC(=O)CCOCCOCCNc3cc4c5c(c3)c(=O)c(C(=O)O)cn5CCC4)[C@H](C)O2)[C@H](C)[C@@H](O[C@@H]2O[C@H](C)C[C@H](N(C)C)[C@H]2O)[C@](C)(O)C[C@@H](C)CN(C)[C@H](C)[C@@H](O)[C@]1(C)O` (stereo partly drawn) [Example 32, 4″-O-(3-{2-[2-(6-Carboxy-7-oxo-2,3-dihydro-1H,7H-pyrido[3,2,1-ij]quinolin-9-ylamino)-ethoxy]-ethoxy}-propionyl)-azithromycin], the MIC in assay [1] is at most 1 µg/mL; in assay [2] it was at most 1 µg/mL; in assay [3], at most 1 µg/mL; in assay [4], at most 1 µg/mL; in assay [7], at most 2 µg/mL; in assay [8], at most 2 µg/mL. The MIC in assay [5] and in assay [6] was at most 0.25 µg/mL each time.
Take `CC[C@H]1OC(=O)[C@H](C)[C@@H](O[C@H]2C[C@@](C)(OC)[C@@H](OC(=O)CCOCCOCCNc3cc4c5c(c3)c(=O)c(C(=O)O)cn5CCC4)[C@H](C)O2)[C@H](C)[C@@H](O[C@@H]2O[C@H](C)C[C@H](N(C)C)[C@H]2O)[C@](C)(OC)C[C@@H](C)C(=O)[C@H](C)[C@@H](O)[C@]1(C)O` [Example 33, 4″-O-(3-{2-[2-(6-Carboxy-7-oxo-2,3-dihydro-1H,7H-pyrido[3,2,1-ij]quinolin-9-ylamino)-ethoxy]-ethoxy}-propionyl)-6-O-methyl-erythromycin A]: the MIC in assay [1] was at most 1 µg/mL; in assay [2], at most 1 µg/mL; in assay [3] it was at most 1 µg/mL; in assay [4] it was at most 1 µg/mL; in assay [7], at most 2 µg/mL; in assay [8] it was at most 2 µg/mL. Besides, the MIC in assay [5] and in assay [6] was at most 0.25 µg/mL in each case.
Regarding `CC[C@H]1OC(=O)[C@H](C)[C@@H](OC2C[C@@](C)(OC)[C@@H](OC(=O)CCNCCOCCCc3ccc4c(c3)c(=O)c(C(=O)O)cn4CC)[C@H](C)O2)[C@H](C)[C@@H](OC2O[C@H](C)C[C@H](N(C)C)[C@H]2O)[C@](C)(OC)C[C@@H](C)C(=O)[C@H](C)[C@@H](O)[C@]1(C)O` (stereo partly drawn) [Example 37, 4″-O-(3-{2-[3-(3-Carboxy-1-ethyl-4-oxo-1,4-dihydro-quinolin-6-yl)-propoxy]-ethylamino}-propionyl)-6-O-methyl-erythromycin A], the MIC in assay [1] was at most 1 µg/mL; in assay [2] it was at most 1 µg/mL; in assay [3] it was at most 1 µg/mL; in assay [4], at most 1 µg/mL; in assay [7], at most 2 µg/mL; in assay [8], at most 2 µg/mL. Further, the MIC in assay [5] and in assay [6] was at most 0.25 µg/mL throughout.
For `CCO/N=C1\[C@H](C)C[C@@](C)(O)[C@H](OC2O[C@H](C)C[C@H](N(C)C)[C@H]2O)[C@@H](C)[C@H](OC2C[C@@](C)(OC)[C@@H](OC(=O)CCOCCOCCCc3ccc4c(c3)c(=O)c(C(=O)O)cn4CC)[C@H](C)O2)[C@@H](C)C(=O)O[C@H](CC)[C@@](C)(O)[C@H](O)[C@H]1C` (stereo partly drawn) [Example 52, 9-Ethyloximino-4″-O-(3-{2-[3-(3-carboxy-1-ethyl-4-oxo-1,4-dihydro-quinolin-6-yl)-propoxy]-ethoxy}-propionyl)-erythromycin A], the MIC in assay [5] and in assay [6] was at most 0.25 µg/mL in each case.
Regarding `CC[C@H]1OC(=O)[C@H](C)[C@@H](O[C@H]2C[C@@](C)(OC)[C@@H](OC(=O)CCNCCOCCOCC#Cc3ccc4c(c3)c(=O)c(C(=O)O)cn4CC)[C@H](C)O2)[C@H](C)[C@@H](O[C@@H]2O[C@H](C)C[C@H](N(C)C)[C@H]2O)[C@](C)(O)C[C@@H](C)CN(C)[C@H](C)[C@@H](O)[C@]1(C)O` [Example 62, 4″-O-[3-(2-{2-[3-(3-Carboxy-1-ethyl-4-oxo-1,4-dihydro-quinolin-6-yl)-prop-2-ynyloxy]-ethoxy}-ethylamino)-propionyl]-azithromycin], the MIC was at most 1 µg/mL in assay [1]; at most 1 µg/mL in assay [2]; at most 1 µg/mL in assay [3]; at most 1 µg/mL in assay [4]; at most 2 µg/mL in assay [7]; at most 2 µg/mL in assay [8].

The record behind these values is US20080255060A1, “Ester Linked Macrolides Useful For The Treatment of Microbial Infections” (priority 2004, published 2008).
